Test results from patent US6693104B2, “Theobromine with an anti-carcinogenic activity” (Lotte Confectionery Co., Ltd., priority 2001, dated 2004).

Tests used:
WB-F344 cells = assay: Scrape Loading/Dye Transfer (SL/DT) assay: suppression of gap junction channel by H2O2; format: cell-based; conditions: 200 μM theobromine, 400 μM H2O2, WB-F344 rat liver epithelial cells, Lucifer Yellow, FIG. 1
Experimental: The effect of theobromine on the suppression of gap junction channel induced by H2O2 was examined according to a known method of Scrape Loading/Dye Transfer (SL/DT) assay (Upham, B. L., Kang, K. S., Cho, H. Y., & Trosko, J. E., Carcinogenesis, 18: 37-42, 1997), as further explained below.
WB-F344 cells were used as a liver cell in order to examine its inhibitory effect on the suppression of gap junction channel in liver cells. The above liver cells were cultured in a MEM-media with 10% FBS, added with 100 IU/mL of penicillin and 100 μg/mL of streptomycin, in an incubator at 37° C. with 5% CO2 (Forma Scientific Co., Marjetta, Ohio, USA). The media compositions used in the above culture were purchased from GIBCO BRL (Grand Island, N.Y., USA). Thus cultured liver cells in media were transferred to each 2 mL petri dish (1×10^5 cells/mL) and cultured for 44 hr. Then the above culturing media were replaced with fresh media with various concentrations of theobromine while the control group was also replaced with fresh media only. Four hours after that, the media were treated theobromine with various concentrations 400 μM by H2O2 together while the control group was replaced with fresh medial. […]

HepG2 = assay: 3H thymidine uptake assay, liver cancer cells; format: cell-based; conditions: HepG2, various concentrations, 72 hr, FIG. 3
Experimental: The inhibitory effect of theobromine on the proliferation of liver cancer cells was examined by using ^3H thymidine uptake assay (Marshall, E. S. et al. European J. Cancer, 30A: 1370-1376, 1994). HepG2 was used as liver cancer cells. The HepG2 liver cancer cells were cultured in RPMI-1640 media with 10% FBS, 100 IU/mL of penicillin and 100 μg/mL of streptomycin, in a 37° C. incubator with 5% CO2 (Forma Scientific Co., Marjetta, Ohio, USA). The media were purchased from GIBCO BRL (Grand Island, N.Y., USA). Thus cultured HepG2 liver cancer cells were transferred to 96 well plates, each of which contains 2×10^4 cells and were added with various concentrations of theobromine obtained from the reference examples 1-3 and were cultured for 72 hr. Six hours prior to recovery of the above cells, each well was added with 1 μCi of ^3H-Thymidine (Sigma, St. Louis, Mo., USA). After completion of the culture, the cells were recovered into a glass fiber filter (Brandel Inc., Gaithersburg, Mass., USA) by using a recovery instrument (Cambridge Scientific Inc., Cambridge, Mass., USA). The incorporation of ^3H-thymidine of recovered cells after combining with 3 mL of scintillation cocktail solution (Wallac, Turku, Finland) was examined in a liquid scintillation counter (Wallac, Turku, Finland). The whole process was repeated three times according to the above method.

SNU1 = assay: 3H thymidine uptake assay, gastric cancer cells; format: cell-based; conditions: SNU1, various concentrations, FIG. 4
SNUC2A = assay: 3H thymidine uptake assay, colon cancer cells; format: cell-based; conditions: various concentrations, FIG. 5
[1] = format: in vivo; conditions: 0.5 g/kg, in DMSO diluted in water, observed for 7 days
Experimental: The toxicity of theobromine of the present invention was performed as follows.

Cn1cnc2c1c(=O)[nH]c(=O)n2C [theobromine]
inhibition of the suppression of gap junction channel by H2O2 (WB-F344 cells): completely inhibit the suppression of gap junction channel | inhibition rate of DNA synthesis of liver cancer cells (HepG2): increased in a dose-dependent manner | inhibition rate of DNA synthesis of gastric cancer cells (SNU1): increased in a dose-dependent manner | inhibition rate of DNA synthesis of colon cancer cells (SNUC2A): increased in a dose-dependent manner | survival [1]: all mice survived
